Results taken from patent US5030458A, “Method for preventing diet-induced carnitine deficiency in domesticated dogs and cats” (priority 1989, dated 1991).
Several values for one entry are separate records, joined by “and”; a condition that tells them apart may be missing. Equal entries are not always repeated. Entries after “also recorded” stand apart in the source; their conditions may differ. Where two headings read alike, the source gives them in different places.

How the values were obtained:
[1] = cited from earlier work
[2] = system: cardiomyopathy; conditions: restoration toward normal of deficient L-Carnitine levels; dogs; cited from earlier work
[3] = Plasma carnitine concentrations in Greyhound dogs on commercial dog food supplemented with L-Carnitine (ground beef); assay type: in vivo; conditions: for concentration at 168 h / concentration at 336 h: dog, plasma, po, 350 mg/animal/day
Protocol: Six apparently healthy Greyhound dogs were determined to be normal by physical examination, fecal flotation, complete blood count, serum biochemical profile, ECG, and echocardiography. They were fed a standard commercial dog food diet free choice for a one-month control period. Control plasma samples (as well as subsequent test samples) were obtained following an eight-hour fast on two consecutive days for analysis of total, free, and esterified L-Carnitine concentration. The average of the plasma L-Carnitine concentration on two consecutive days was taken for each dog and each measuring period. Following the control period, all of the dogs were continued for two weeks on the standard commercial dog food diet supplemented with L-Carnitine. The L-Carnitine supplement was in the form of 0.5 kg per dog per day of raw frozen lean ground beef. This was equivalent to a daily supplement of 350 mg. of L-Carnitine per dog. Plasma samples were drawn on days 7 and 8 (averaged for the one-week measurement) and days 13 and 14 (averaged for the two-week measurement) for L-Carnitine analysis. Differences between the means of each test period and control were determined by the Student's t test.

[4] = rats; cited from earlier work
[5] = Renal reabsorption of L-Carnitine in dogs; assay type: in vivo, dog
[6] = cited from earlier work; remark: listed apart in the source
[7] = human; approaching; cited from earlier work
[8] = mammalian species; cited from earlier work
[9] = system: cardiomyopathy; conditions: restoration toward normal of deficient L-Carnitine levels; hamsters; cited from earlier work
[10] = system: fatty acid oxidation in muscle homogenates; conditions: certain L-Carnitine deficient patients; cited from earlier work
[11] = system: carnitine deficiency syndromes; conditions: humans; U.S. Pat. No. 4,382,092; cited from earlier work
[12] = Changes in serum L-Carnitine following oral administration of gamma-butyrobetaine; assay type: in vivo; conditions: administering GBB to a dog
Excerpt: Changes in serum L-Carnitine following oral
administration of 5 grams of gamma-butyro-betaine. Amounts

For `C[N+](C)(C)C[C@H](O)CC(=O)[O-]` [L-Carnitine], the “Plasma total carnitine, mean” value ([1]; human females) is listed as 51.5 ± 11.6 µM, the “Plasma total carnitine, mean” value ([1]; human males) is listed as 59.3 ± 11.9 µM and the Myocardial function [2] is listed as “improved myocardial function”. The concentration ([3]; Week 1, individual dogs 1-6, ground beef 0.5 kg/day/dog (350 mg L-Carnitine/day), 10080 min, read-out: Plasma carnitine concentration, Free) was 60.5 µM and 52.5 µM and 55.6 µM and 56 µM and 51.7 µM, the concentration ([3]; Week 1, individual dogs 1-6, ground beef 0.5 kg/day/dog (350 mg L-Carnitine/day), 10080 min, read-out: Plasma carnitine concentration, Total) was 70.7 µM and 57.2 µM and 63.1 µM and 58.1 µM and 56.3 µM and the concentration ([3]; Week 2, individual dogs 1-6, ground beef 0.5 kg/day/dog (350 mg L-Carnitine/day), 20160 min, read-out: Plasma carnitine concentration, Free) was 62.2 µM and 52.7 µM and 52 µM and 58.5 µM and 41 µM. For the same molecule, the concentration ([3]; Week 2, individual dogs 1-6, ground beef 0.5 kg/day/dog (350 mg L-Carnitine/day), 20160 min, read-out: Plasma carnitine concentration, Total) was 65.7 µM and 58.1 µM and 56.3 µM and 66.3 µM and 43.2 µM, the “Plasma total L-Carnitine concentration (in words)” value ([3]; diet supplemented with L-Carnitine) was “significantly increased; also recorded: stabilizes in a range that is considered normal; also recorded: dramatically increase the plasma concentration of L-Carnitine in dogs” and the concentration at 168 h ([3]; Week 1, average of 6 dogs, S.D. ±3.5, ** p ≤ 0.01 vs control, read-out: Plasma carnitine concentration, Free, AVG) was 55.9 µM. For the same molecule, the concentration at 168 h ([3]; Week 1, average of 6 dogs, S.D. ±6.5, * p ≤ 0.05 vs control, read-out: Plasma carnitine concentration, Total, AVG) was 62.5 µM, the concentration at 168 h ([3]; Week 1, individual dogs 1-6, ground beef 0.5 kg/day/dog (350 mg L-Carnitine/day), read-out: Plasma carnitine concentration, Free) was 58.9 µM and the concentration at 168 h ([3]; Week 1, individual dogs 1-6, ground beef 0.5 kg/day/dog (350 mg L-Carnitine/day), read-out: Plasma carnitine concentration, Total) was 70.1 µM. It also gave a concentration at 336 h ([3]; Week 2, average of 6 dogs, S.D. ±8.0, * p ≤ 0.05 vs control, read-out: Plasma carnitine concentration, Free, AVG) of 51.9 µM, a concentration at 336 h ([3]; Week 2, average of 6 dogs, S.D. ±8.6, read-out: Plasma carnitine concentration, Total, AVG) of 57 µM and a concentration at 336 h ([3]; Week 2, individual dogs 1-6, ground beef 0.5 kg/day/dog (350 mg L-Carnitine/day), read-out: Plasma carnitine concentration, Free) of 44.9 µM. The concentration at 336 h ([3]; Week 2, individual dogs 1-6, ground beef 0.5 kg/day/dog (350 mg L-Carnitine/day), read-out: Plasma carnitine concentration, Total) was 52.4 µM, the “Plasma carnitine concentration, average” value [4] was 56.5 ± 2.2 µM and the “Renal reabsorption, average” value [5] was “approximately 75%”. The Solubility in water [6] was “extremely soluble in water”, the Renal reabsorption [7] was roughly 100% and the “L-Carnitine concentration in cardiac and skeletal muscle relative to serum” value [8] was “much higher than in serum”. The Myocardial function [9] was “improved myocardial function” and the “Fatty acid oxidation in muscle homogenates” value [10] was “restoration to normal of fatty acid oxidation”.
For `C[N+](C)(C)CCCC(=O)[O-]` [gamma-butyro-betaine, gamma-butyrobetaine], the “Alleviation of carnitine deficiency syndromes” value [11] is listed as “used successfully to alleviate carnitine deficiency syndromes in humans” and the “Effect on serum L-Carnitine (in words)” value [12] is listed as “produces a concomitant use in serum L-Carnitine”.
